Measurements as given in US20230372498A1, “PLK1 SELECTIVE DEGRADATION INDUCING COMPOUND” (UPPTHERA, priority 2020, published 2023).

Target: T1, PLK1 (Homo sapiens, UniProt P53350)
T1 construct: endogenous in cells; host or cells: HeLa
Experiment: PLK1 protein degradation in HeLa cells, Western blotting (PLK1/GAPDH ratio)
Assay type: cell-based
Conditions: 6 hours compound incubation; for DC50: measured only if the grade of Dmax is A or B; for Dmax: thymidine block and release, 10 points three-fold from 3 μM, PLK1 to GAPDH ratio, read-out: Dmax
Method in brief: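 Thymidine-synchronised HeLa cells (2 mM, 24 h) released 4 h into complete medium, then treated 6 h with compound in 10-point 3-fold dilutions from 3 μM. RIPA lysates (15 μg protein) run on SDS-PAGE; PLK1 Western blot normalised to GAPDH.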

T1 sequence (P53350 whole entry): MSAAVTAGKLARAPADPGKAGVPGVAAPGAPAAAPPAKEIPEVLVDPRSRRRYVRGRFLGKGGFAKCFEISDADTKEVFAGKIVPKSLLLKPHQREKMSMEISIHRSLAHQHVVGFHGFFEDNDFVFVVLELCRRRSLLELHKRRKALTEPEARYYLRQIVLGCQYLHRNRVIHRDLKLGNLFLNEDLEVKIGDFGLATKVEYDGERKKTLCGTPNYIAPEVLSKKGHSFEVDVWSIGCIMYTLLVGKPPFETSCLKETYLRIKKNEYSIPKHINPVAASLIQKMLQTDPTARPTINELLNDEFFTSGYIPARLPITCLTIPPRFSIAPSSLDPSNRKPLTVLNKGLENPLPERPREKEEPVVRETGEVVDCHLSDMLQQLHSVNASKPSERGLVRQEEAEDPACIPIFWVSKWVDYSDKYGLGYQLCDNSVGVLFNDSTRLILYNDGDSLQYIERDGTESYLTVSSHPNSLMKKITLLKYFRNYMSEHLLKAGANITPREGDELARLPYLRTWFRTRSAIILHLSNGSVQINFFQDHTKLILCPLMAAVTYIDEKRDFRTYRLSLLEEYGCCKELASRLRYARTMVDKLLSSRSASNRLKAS

Question: Which DC50 does the source give for `COc1cc(C(=O)NC2CCN(CCCCCNc3cccc4c3C(=O)N(C3CCC(=O)NC3=O)C4=O)C2)c(F)cc1Nc1ncc2c(n1)N(C1CCCC1)CC(F)(F)C(=O)N2C` (centres unmarked) [Example 109, 4-((9-cyclopentyl-7,7-difluoro-5-methyl-6-oxo-6,7,8,9-tetrahydro-5H-pyrimido[4,5-b][1,4]diazepin-2-yl)amino)-N-(1-(5-((2-(2,6-dioxopiperidin-3-yl)-1,3-dioxoisoindolin-4-yl)amino)pentyl)pyrrolidin-3-yl)-2-fluoro-5-methoxybenzamide] here?
Answer: The DC50 was at most 500 nM.

Question: And the Dmax?
Answer: The Dmax was 60 to 80%.

Question: How did the DC50 turn out when `COc1cc(C(=O)NC2CCN(CCOCCCNc3cccc4c3C(=O)N(C3CCC(=O)NC3=O)C4=O)C2)c(F)cc1Nc1ncc2c(n1)N(C1CCCC1)CC(F)(F)C(=O)N2C` (centres unmarked) [Example 110, 4-((9-cyclopentyl-7,7-difluoro-5-methyl-6-oxo-6,7,8,9-tetrahydro-5H-pyrimido[4,5-b][1,4]diazepin-2-yl)amino)-N-(1-(2-(3-((2-(2,6-dioxopiperidin-3-yl)-1,3-dioxoisoindolin-4-yl)amino)propoxy)ethyl)pyrrolidin-3-yl)-2-fluoro-5-methoxybenzamide] was run?
Answer: The DC50 was at most 50 nM.

Question: And the Dmax?
Answer: Its Dmax is at least 80%.

Question: How did the DC50 turn out when `COc1cc(C(=O)NC2CCN(CCCOCCCNc3cccc4c3C(=O)N(C3CCC(=O)NC3=O)C4=O)C2)c(F)cc1Nc1ncc2c(n1)N(C1CCCC1)CC(F)(F)C(=O)N2C` (centres unmarked) [Example 111, 4-((9-cyclopentyl-7,7-difluoro-5-methyl-6-oxo-6,7,8,9-tetrahydro-5H-pyrimido[4,5-b][1,4]diazepin-2-yl)amino)-N-(1-(3-(3-((2-(2,6-dioxopiperidin-3-yl)-1,3-dioxoisoindolin-4-yl)amino)propoxy)propyl)pyrrolidin-3-yl)-2-fluoro-5-methoxybenzamide] was run?
Answer: The DC50 was at most 50 nM.

Question: What about the Dmax of the same molecule?
Answer: Its Dmax is at least 80%.

Question: What does the source list for `COc1cc(C(=O)N[C@H]2CCN(CCOCCNC(=O)CNc3cccc4c3C(=O)N(C3CCC(=O)NC3=O)C4=O)C2)c(F)cc1Nc1ncc2c(n1)N(C1CCCC1)CC(F)(F)C(=O)N2C` (stereo partly drawn) [Example 112, 4-((9-cyclopentyl-7,7-difluoro-5-methyl-6-oxo-6,7,8,9-tetrahydro-5H-pyrimido[4,5-b][1,4]diazepin-2-yl)amino)-N-((3S)-1-(2-(2-(2-((2-(2,6-dioxopiperidin-3-yl)-1,3-dioxoisoindolin-4-yl)amino)acetamido)ethoxy)ethyl)pyrrolidin-3-yl)-2-fluoro-5-methoxybenzamide]?
Answer: DC50: ≤ 500 nM; Dmax: 60 to 80%

Question: With `COc1cc(C(=O)NCCCCCc2cccc3c2CN(C2CCC(=O)NC2=O)C3=O)c(F)cc1Nc1ncc2c(n1)N(C1CCCC1)CC(F)(F)C(=O)N2C` (centres unmarked) [Example 165, 4-((9-cyclopentyl-7,7-difluoro-5-methyl-6-oxo-6,7,8,9-tetrahydro-5H-pyrimido[4,5-b][1,4]diazepin-2-yl)amino)-N-(5-(2-(2,6-dioxopiperidin-3-yl)-1-oxoisoindolin-4-yl)pentyl)-2-fluoro-5-methoxybenzamide] as the molecule, how does the Dmax read?
Answer: Its Dmax is under 60%.

Question: Which Dmax does the source give for `COc1cc(C(=O)NCCCCCCCc2cccc3c2CN(C2CCC(=O)NC2=O)C3=O)c(F)cc1Nc1ncc2c(n1)N(C1CCCC1)CC(F)(F)C(=O)N2C` (centres unmarked) [Example 166, 4-((9-cyclopentyl-7,7-difluoro-5-methyl-6-oxo-6,7,8,9-tetrahydro-5H-pyrimido[4,5-b][1,4]diazepin-2-yl)amino)-N-(7-(2-(2,6-dioxopiperidin-3-yl)-1-oxoisoindolin-4-yl)heptyl)-2-fluoro-5-methoxybenzamide] here?
Answer: Its Dmax is 60 to 80%.

Question: With `COc1cc(C(=O)NCCOCCOCCNc2cccc3c2C(=O)N(C2CCC(=O)NC2=O)C3=O)c(F)cc1Nc1ncc2c(n1)N(C(C)C)CC(F)(F)C(=O)N2C` (centres unmarked) [Example 167, 4-((7,7-difluoro-9-isopropyl-5-methyl-6-oxo-6,7,8,9-tetrahydro-5H-pyrimido[4,5-b][1,4]diazepin-2-yl)amino)-N-(2-(2-(2-((2-(2,6-dioxopiperidin-3-yl)-1,3-dioxoisoindolin-4-yl)amino)ethoxy)ethoxy)ethyl)-2-fluoro-5-methoxybenzamide] as the molecule, how does the Dmax read?
Answer: Its Dmax is 60 to 80%.
